Laboratory results published in patent publication US20090030068A1, “Antitumour Compounds” (PHARMA MAR, S.A., priority 2005, published 2009).
Converted amounts (≈) assume the structure as drawn.

Key:
[1] = test system: A549; assay: SRB colorimetric cell growth inhibition assay, A549; assay type: cell-based
Experimental: (§1) The assays of antitumor activity allow detecting extracts or compounds with cytotoxic activity (cell death) or cytostatic activity (growth inhibition) in in vitro cultures of tumor cells of human origin.
(§2) The quantification of cell growth in vitro was carried out by means of a calorimetric assay with sulforhodamine B (SRB) (following an adaptation of the previously described method by Philip Skehan et al. 1990, J. Natl. Cancer Inst., 82:1107-1112).
(§3) This type of assay uses 96-well culture microplates, (Mosmann, 1983, Faircloth, 1988). Most of the cell lines used are obtained from the American Type Culture Collection (ATCC) and derived from different types of human tumors.
(§4) The cell cultures are maintained in DMEM culture medium (supplemented with 10% fetal bovine serum (FBS), 1% penicillin/streptomycin 1% glutamine) at 37° C., 5% CO2 and 98% humidity.
(§5) For the assays, the cells are trypsinized and seeded in 96-well microplates at different concentrations depending on the cell line, and are incubated for 24 hours in an active ingredient-free medium for their stabilization. The cultures are then treated (final concentration varies depending on the type of assay) with carrier (DMSO:DMEM, 1:1) or active ingredient. After 48 hours of exposure to the active ingredient, the antitumor effect is measured by means of the previously mentioned SRB method, which basically consists of: fixing the cells with a 1% glutaraldehyde solution (30 min, RT), washing of the fixer in PBS (3 washings, RT), staining the cultures with a 0.4% SRB solution (30 min, RT), washing of the colorant in 1% acetic acid solution (3 washings, RT), air-drying the plates and final extraction of the colorant with Tris buffer. The quantification of the assay is carried out by means of optical density reading of the plates in a spectrophotometric microplate reader at a single wavelength of 490 nm. […]

[2] = test system: MDA-MB-231; assay: SRB colorimetric cell growth inhibition assay, MDA-MB-231; assay type: cell-based
Experimental: as §1, §2, §3, §4, §5

[3] = test system: HT29; assay: SRB colorimetric cell growth inhibition assay, HT29; assay type: cell-based
Experimental: as §1, §2, §3, §4, §5

[4] = test system: L1210 cells; settings: cited from earlier work
[5] = test system: A549 cancer cells; settings: cited from earlier work
[6] = test system: HCT-8 cancer cells; settings: cited from earlier work
[7] = test system: MDA-MB-231 cancer cells; settings: cited from earlier work
[8] = test system: P388 cancer cells; settings: cited from earlier work
[9] = test system: P388 leukemia; settings: cited from earlier work; for antitumor activity / toxicity: P388 leukemia in CDF1 mice
[10] = test system: KB cells; settings: cited from earlier work

COC1CC(C)OC(CCC(C)C(O)C(C)C2OC(=O)/C=C/C(C)=C/CC(O)CC3C=CCC(CC(OC)C(C)C(O)CC(O)C(C)C(C(C)C(O)C(C)CCC4CC(OC)CC(C)O4)OC(=O)/C(C)=C/CC(O)CC4C=CCC(CC(OC)C(C)C(O)CC(O)C2C)O4)O3)C1 (stereo not shown) [Compound A]
CC50 ([1]; Homo sapiens, A549, 48 h, read-out: LC50): 529 nM
GI50 ([1]; Homo sapiens, NSCL (Lung) A549, 48 hours of exposure, concentration causing 50% growth inhibition): 228 nM
TGI ([1]; NSCL (Lung) A549, 48 hours of exposure, concentration causing total growth inhibition): 3.38E−7 Molar
TGI ([2]; Breast MDA-MB-231, 48 hours of exposure, concentration causing total growth inhibition): 2.35E−6 Molar
CC50 ([2]; Homo sapiens, MDA-MB-231, 48 h, read-out: LC50): 4770 nM
GI50 ([2]; Homo sapiens, Breast MDA-MB-231, 48 hours of exposure, concentration causing 50% growth inhibition): 808 nM
TGI ([3]; Colon HT29, 48 hours of exposure, concentration causing total growth inhibition): 8.81E−7 Molar
LC50 (concentration killing 50% of cells) ([3]; Homo sapiens, HT-29, 48 h, read-out: LC50): 2200 nM
GI50 ([3]; Homo sapiens, HT-29, Colon HT29, 48 hours of exposure, concentration causing 50% growth inhibition): 338 nM

CO[C@H]1C[C@H](CC[C@H](C)[C@H](O)[C@H](C)[C@H]2OC(=O)/C(C)=C/C[C@H](O)C[C@@H]3C=CC[C@@H](C[C@H](OC)[C@@H](C)[C@@H](O)C[C@@H](O)[C@H](C)[C@@H]([C@@H](C)[C@@H](O)[C@@H](C)CC[C@H]4C[C@H](OC)C[C@H](C)O4)OC(=O)/C(C)=C/C[C@H](O)C[C@@H]4C=CC[C@@H](C[C@H](OC)[C@@H](C)[C@@H](O)C[C@@H](O)[C@@H]2C)O4)O3)O[C@@H](C)C1 [Misakinolide A]
IC50 (cytotoxicity) [4]: 0.035 µg/mL (≈ 0.0262 µM)
in vitro antitumor activity [5]: in vitro antitumor activity
in vitro antitumor activity [6]: in vitro antitumor activity
in vitro antitumor activity [7]: in vitro antitumor activity
in vitro antitumor activity [8]: in vitro antitumor activity
T/C ([9]; dose of 0.1 mg/kg (mouse), P388 leukemia): 140%

CO[C@H]1C[C@H](CC[C@H](C)[C@H](O)[C@H](C)[C@H]2OC(=O)/C=C/C(C)=C/C[C@H](O)C[C@@H]3C=CC[C@@H](C[C@H](OC)[C@@H](C)[C@@H](O)C[C@@H](O)[C@H](C)[C@@H]([C@@H](C)[C@@H](O)[C@@H](C)CC[C@H]4C[C@H](OC)C[C@H](C)O4)OC(=O)/C=C/C(C)=C/C[C@H](O)C[C@@H]4C=CC[C@@H](C[C@H](OC)[C@@H](C)[C@@H](O)C[C@@H](O)[C@@H]2C)O4)O3)O[C@@H](C)C1 [Swinholide A]
IC50 (cytotoxicity) [10]: 0.04 µg/mL (≈ 0.0288 µM)
IC50 (cytotoxicity) [4]: 0.03 µg/mL (≈ 0.0216 µM)
antitumor activity [9]: did not show promising antitumor activity
toxicity [9]: toxic

COC1CC(C)OC(CCC(C)C(O)C(C)C2OC(=O)/C=C\C(C)=C\CC(O)CC3C=CCC(CC(OC)C(C)C(O)CC(O)C(C)C(C(C)C(O)C(C)CCC4CC(O)CC(C)O4)OC(=O)/C=C\C(C)=C\CC(O)CC4C=CCC(CC(OC)C(C)C(O)CC(O)C2C)O4)O3)C1 (stereo not shown) [Swinholide C]
IC50 (cytotoxicity) [10]: 0.05 µg/mL (≈ 0.0363 µM)
IC50 (cytotoxicity) [4]: 0.14 µg/mL (≈ 0.102 µM)

isoswinholide A
IC50 (cytotoxicity) [10]: 1.1 µg/mL
IC50 (cytotoxicity) [4]: 1.35 µg/mL
antitumor activity [9]: did not show promising antitumor activity
toxicity [9]: toxic
